The record followed here is patent US7977375B2, “Antibiotic and method of production thereof” (Helmholtz-Zentrum Für Infektionsforschung GmbH, priority 2004, dated 2011).

≈ marks a conversion by molar mass, not a printed value. Where only a bound is given, the exact number is not on record here.

Test [1] relates to E. faecium VRAR E315. In words: agar diffusion method, inhibition zone. In kind it is cell-based, Enterococcus faecium. Conditions: Enterococcus faecium, VRARE315; E. faecium VRAR E315; MH agar, 18 hours at 37° C.; per disk 10 μl crude extract, 50 μg macrolactin, 78 μg erythromycin, 30 μg vancomycin, 10 μg ampicillin. On the procedure:
(§1) The agar diffusion method employing Mueller-Hinton (MH) agar (Difco Laboratories) was used to determine effectiveness against bacteria and yeasts. Sterile paper disks (Schleicher & Schüell, Germany) were seeded with 10 μl crude extract or with a solution of purified macrolactin (final compound concentration on the disk 50 μg) and then placed on the surface of MH-agar plates that had been seeded beforehand with a suspension of overnight culture of the test microorganisms at a concentration of 10^5 cells/ml.

Test [2] concerns E. faecalis ATCC 29212. In words: agar diffusion method, inhibition zone. In kind it is cell-based, Enterococcus faecalis. The settings on record: Enterococcus faecalis, ATCC29212; E. faecalis ATCC 29212; MH agar, 18 hours at 37° C.; per disk 10 μl crude extract, 50 μg macrolactin, 78 μg erythromycin, 30 μg vancomycin, 10 μg ampicillin. On the procedure:
as §1
Background: A growth-free zone around the sample is the usual read-out of agar diffusion tests.

Test [3] relates to E. faecalis VRAS E305. As to the kind of experiment: agar diffusion method, inhibition zone. In kind it is cell-based, Enterococcus faecalis. The settings on record: Enterococcus faecalis, VRASE305; E. faecalis VRAS E305; MH agar, 18 hours at 37° C.; per disk 10 μl crude extract, 50 μg macrolactin, 78 μg erythromycin, 30 μg vancomycin, 10 μg ampicillin. The procedure: as §1
For test [4], the system named is B. cepacia WT139. As to the kind of experiment: MIC / MBC in liquid culture. In kind it is cell-based, Burkholderia cepacia. The settings on record: Burkholderia cepacia, read-out: MIC (minimal inhibitory concentration). An excerpt:
(§2) 7-O-malonyl macrolactin A was not effective against some of the gram-negative bacteria tested by the inventors.

Test [5] relates to B. cepacia SCV 141. In words: MIC / MBC in liquid culture. In kind it is cell-based, Burkholderia cepacia. The settings on record: Burkholderia cepacia, SCV141, read-out: MIC (minimal inhibitory concentration).
Source text: as §2

Test [6] deals with S. aureus DSMZ 1104. As to the kind of experiment: agar diffusion method, inhibition zone. In kind it is cell-based, Staphylococcus aureus. Conditions: Staphylococcus aureus, DSMZ1104; S. aureus DSMZ 1104; MH agar, 18 hours at 37° C.; per disk 10 μl crude extract, 50 μg macrolactin, 78 μg erythromycin, 30 μg vancomycin, 10 μg ampicillin. The procedure:
as §1

For test [7], the system named is MRSA 2 (methicillin-resistant S. aureus, clinical isolate). As to the kind of experiment: agar diffusion method, inhibition zone. In kind it is cell-based, Staphylococcus aureus. The settings on record: Staphylococcus aureus; MRSA 2; MH agar, 18 hours at 37° C.; per disk 10 μl crude extract, 50 μg macrolactin, 78 μg erythromycin, 30 μg vancomycin, 10 μg ampicillin. On the procedure:
as §1

Test [8] relates to S. aureus # (own collection, methicillin-sensitive control strain). As to the kind of experiment: agar diffusion method, inhibition zone. The settings on record: Staphylococcus aureus; S. aureus # own collection; MH agar, 18 hours at 37° C.; per disk 10 μl crude extract, 50 μg macrolactin, 78 μg erythromycin, 30 μg vancomycin, 10 μg ampicillin. In kind it is cell-based, Staphylococcus aureus. On the procedure:
as §1

Test [9] has as its system MRSA 3 (methicillin-resistant S. aureus, clinical isolate). As to the kind of experiment: agar diffusion method, inhibition zone. In kind it is cell-based, Staphylococcus aureus. The settings on record: Staphylococcus aureus; MRSA 3; MH agar, 18 hours at 37° C.; per disk 10 μl crude extract, 50 μg macrolactin, 78 μg erythromycin, 30 μg vancomycin, 10 μg ampicillin. On the procedure: as §1

Test [10] has as its system E. faecium VRAR E315. As to the kind of experiment: MIC / MBC in liquid culture. In kind it is cell-based, Enterococcus faecium. The settings on record: Enterococcus faecium, VRARE315; E. faecium VRAR E315; read-out: MIC (minimal inhibitory concentration).
Test [11] concerns S. aureus # (non-methicillin-resistant reference strain). In words: MIC / MBC in liquid culture. In kind it is cell-based, Staphylococcus aureus. The settings on record: Staphylococcus aureus; S. aureus #; read-out: MIC (minimal inhibitory concentration).
Test [12] relates to E. faecalis VRAS E305. As to the kind of experiment: MIC / MBC in liquid culture. In kind it is cell-based, Enterococcus faecalis. Conditions: Enterococcus faecalis, VRASE305; E. faecalis VRAS E305; read-out: MIC (minimal inhibitory concentration).
Test [13] has as its system B. cepacia SCV 141. In words: agar diffusion method, inhibition zone. In kind it is cell-based, Burkholderia cepacia. The settings on record: Burkholderia cepacia, SCV141, MH agar, 18 hours at 37° C., per disk 10 μl crude extract, 50 μg macrolactin, 78 μg erythromycin, 10 μg ampicillin. The procedure:
as §1
The B. cepacia strain used, which is a clinical isolate from a cystic fibrosis patient, forms small colonies (SCV 141).

Test [14] relates to E. faecalis ATCC 29212. As to the kind of experiment: MIC / MBC in liquid culture. In kind it is cell-based, Enterococcus faecalis. Conditions: Enterococcus faecalis, ATCC29212, E. faecalis ATCC 29212; read-out: MIC (minimal inhibitory concentration).
Test [15] deals with MRSA 2. In words: MIC / MBC in liquid culture. In kind it is cell-based, Staphylococcus aureus. The settings on record: Staphylococcus aureus; MRSA 2; read-out: MIC (minimal inhibitory concentration).
The test system of test [16] is MRSA 3. In words: MIC / MBC in liquid culture. Conditions: Staphylococcus aureus; MRSA 3; read-out: MIC (minimal inhibitory concentration). In kind it is cell-based, Staphylococcus aureus.
The subject of test [17] is Candida parapsilosis DSM5784. In words: MIC / MBC in liquid culture. In kind it is cell-based. The settings on record: Lodderomyces parapsilosis, read-out: MIC (minimal inhibitory concentration).
For test [18], the system named is Candida krusei DSM 6128. In words: MIC / MBC in liquid culture. In kind it is cell-based. The settings on record: Pichia kudriavzevii, DSM6128, read-out: MIC (minimal inhibitory concentration).
Test [19] has as its system Candida albicans DSM 11225. As to the kind of experiment: MIC / MBC in liquid culture. In kind it is cell-based. The settings on record: DSM11225, read-out: MIC (minimal inhibitory concentration).

With `CC[C@H]1OC(=O)[C@H](C)[C@@H](O[C@H]2C[C@@](C)(OC)[C@@H](O)[C@H](C)O2)[C@H](C)[C@@H](O[C@@H]2O[C@H](C)C[C@H](N(C)C)[C@H]2O)[C@](C)(O)C[C@@H](C)C(=O)[C@H](C)[C@@H](O)[C@]1(C)O` [Erythromycin, erythromycin], the zone of inhibition (as a rule, the size of the clear area around the sample on an inoculated plate) at 78 µg/disc is 25 mm in test [1]; 25 mm in test [2]; 0 mm in [3]; 30 mm in test [6]; 0 mm in test [7]; 40 mm in test [8]. For the same molecule, the zone of inhibition at 78 µg/disc in [9] and in test [13] was 0 mm throughout. Further, the MIC was > 128 µg/mL in test [4]; 128 µg/mL (≈ 174 µM) in test [5]; 2 µg/mL (≈ 2.73 µM) in test [10]; 0.06 µg/mL (≈ 0.0818 µM) in test [11]; 128 µg/mL (≈ 174 µM) in test [12]; 2 µg/mL (≈ 2.73 µM) in test [14]. The MIC in [15] and in test [16] was > 128 µg/mL throughout.
For the molecule `Clc1ccc(COC(Cn2ccnc2)c2ccc(Cl)cc2Cl)c(Cl)c1` (stereo not shown) [MCZ, miconazol], the MIC in test [17], in [18] and in [19] was 2 µg/mL (≈ 4.81 µM) each time.
